# Results as given in article PMC10485906, “Development of a Dihydroquinoline–Pyrazoline GluN2C/2D-Selective Negative Allosteric Modulator of the N-Methyl-D-aspartate Receptor” (ACS Chemical Neuroscience, 2023).
# Experiment: Brain homogenate tissue binding and stability (RED device)
# Format: in vitro ADME, mouse
# Conditions: C57BL/6, mouse, brain homogenate (4 times diluted), pH 7.4; starting concentration 5 μM; 4 h
# Experimental: Carbamazepine (Apin Chemicals) served as a positive control for brain tissue binding. Test compounds and the positive control were initially dissolved in DMSO to make 1 mM stock solutions. […] A rapid equilibrium dialysis (RED) device (Thermo Scientific) containing a dialysis membrane with a molecular weight cutoff of 8000 Da was used to assess tissue binding and metabolic stability. […] The test compounds and positive control (200 μL of 5 μM solution) were added to the red chamber of the dialysis insert, while the white chamber was filled with dialysis buffer (350 μL). The RED device was then sealed with an adhesive film and incubated at 37 °C with shaking (300 rpm) for 4 h. For the initial time point (t = 0 min), 50 μL aliquots of test compounds and the positive control were added to 96-deep well plates (0.7 mL per well) and quenched with 400 μL of MeCN. Following dialysis, another 50 μL aliquot of the tested samples was removed from each well (brain homogenate and buffer) and diluted with an equal volume of the opposite matrix to nullify any matrix effects. […] The supernatant (100 μL) was subsequently transferred to 96-deep well plates for LC-MS/MS analysis. Prodrug metabolism and 2i concentrations were determined by fit-for-purpose LC-MS/MS methods on a nine-point calibration curve ranging from 0.12 to 7.5 μM.
row,SMILES,"remaining at 4 h, 5 µM"
1,O=C(CC(F)(F)C(=O)N1N=C(c2c(-c3ccc(Cl)cc3)c3ccccc3[nH]c2=O)CC1c1ccc(Cl)cc1)OCc1ccccc1 (centres unmarked) [2p],31%
2,CCOC(=O)CC(F)(F)C(=O)N1N=C(c2c(-c3ccc(Cl)cc3)c3ccccc3[nH]c2=O)CC1c1ccc(Cl)cc1 (centres unmarked) [2l],43%
3,CC(C)OC(=O)CC(F)(F)C(=O)N1N=C(c2c(-c3ccc(Cl)cc3)c3ccccc3[nH]c2=O)CC1c1ccc(Cl)cc1 (centres unmarked) [2m],56%
4,NC(=O)CC(F)(F)C(=O)N1N=C(c2c(-c3ccc(Cl)cc3)c3ccccc3[nH]c2=O)CC1c1ccc(Cl)cc1 (centres unmarked) [2k],44%
5,CNC(=O)CC(F)(F)C(=O)N1N=C(c2c(-c3ccc(Cl)cc3)c3ccccc3[nH]c2=O)CC1c1ccc(Cl)cc1 (centres unmarked) [2q],33%

# Same assay, conditions: C57BL/6, pH 7.4; mouse brain tissue binding, RED, 4 h
row,SMILES,"recovery at 4 h, 5 μM"
1,O=C(CC(F)(F)C(=O)N1N=C(c2c(-c3ccc(Cl)cc3)c3ccccc3[nH]c2=O)CC1c1ccc(Cl)cc1)OCc1ccccc1 (centres unmarked) [2p],33%
2,CCOC(=O)CC(F)(F)C(=O)N1N=C(c2c(-c3ccc(Cl)cc3)c3ccccc3[nH]c2=O)CC1c1ccc(Cl)cc1 (centres unmarked) [2l],41%
3,CC(C)OC(=O)CC(F)(F)C(=O)N1N=C(c2c(-c3ccc(Cl)cc3)c3ccccc3[nH]c2=O)CC1c1ccc(Cl)cc1 (centres unmarked) [2m],51%
4,NC(=O)CC(F)(F)C(=O)N1N=C(c2c(-c3ccc(Cl)cc3)c3ccccc3[nH]c2=O)CC1c1ccc(Cl)cc1 (centres unmarked) [2k],41%
5,CNC(=O)CC(F)(F)C(=O)N1N=C(c2c(-c3ccc(Cl)cc3)c3ccccc3[nH]c2=O)CC1c1ccc(Cl)cc1 (centres unmarked) [2q],30%

# Same assay, conditions: after 4 h
row,SMILES,metabolized in brain homogenate (% of prodrug)
1,NC(=O)CC(F)(F)C(=O)N1N=C(c2c(-c3ccc(Cl)cc3)c3ccccc3[nH]c2=O)CC1c1ccc(Cl)cc1 (centres unmarked) [2k],56%

# Same assay, conditions: brain homogenate chamber after 4 h dialysis
row,SMILES,"Average 2i Concentration, Brain_Mice"
1,CNC(=O)CC(F)(F)C(=O)N1N=C(c2c(-c3ccc(Cl)cc3)c3ccccc3[nH]c2=O)CC1c1ccc(Cl)cc1 (centres unmarked) [2q],BLQ

# Same assay, conditions: brain homogenate stability sample, 0 h
row,SMILES,"Average 2i Concentration, Brain_St_0Hr_Mice"
1,CNC(=O)CC(F)(F)C(=O)N1N=C(c2c(-c3ccc(Cl)cc3)c3ccccc3[nH]c2=O)CC1c1ccc(Cl)cc1 (centres unmarked) [2q],BLQ

# Same assay, conditions: brain homogenate stability sample, 4 h
row,SMILES,"Average 2i Concentration, Brain_St_4Hr_Mice"
1,CNC(=O)CC(F)(F)C(=O)N1N=C(c2c(-c3ccc(Cl)cc3)c3ccccc3[nH]c2=O)CC1c1ccc(Cl)cc1 (centres unmarked) [2q],BLQ

# Same assay, conditions: buffer chamber after 4 h dialysis
row,SMILES,"Average 2i Concentration, Buffer_Mice"
1,O=C(CC(F)(F)C(=O)N1N=C(c2c(-c3ccc(Cl)cc3)c3ccccc3[nH]c2=O)CC1c1ccc(Cl)cc1)OCc1ccccc1 (centres unmarked) [2p],BLQ
2,CCOC(=O)CC(F)(F)C(=O)N1N=C(c2c(-c3ccc(Cl)cc3)c3ccccc3[nH]c2=O)CC1c1ccc(Cl)cc1 (centres unmarked) [2l],BLQ
3,CC(C)OC(=O)CC(F)(F)C(=O)N1N=C(c2c(-c3ccc(Cl)cc3)c3ccccc3[nH]c2=O)CC1c1ccc(Cl)cc1 (centres unmarked) [2m],BLQ
4,CNC(=O)CC(F)(F)C(=O)N1N=C(c2c(-c3ccc(Cl)cc3)c3ccccc3[nH]c2=O)CC1c1ccc(Cl)cc1 (centres unmarked) [2q],BLQ

# Experiment: Plasma stability, human
# Format: in vitro ADME
# Conditions: both sexes, human plasma, incubation up to 120 min, 3 μM, read-out: plasma stability T1/2, human
# Experimental: Human plasma (lithium heparin (LiHep) mixed, gender pooled, 0.2 μm filtered) and mouse plasma (BALB/C, LiHep mixed, male pooled, 0.2 μm filtered) were purchased from BioIVT. Procaine (Sigma-Aldrich) served as a positive control for both human and mouse plasma experiments. Test compounds and positive controls were initially dissolved in DMSO to make 10 mM stock solutions. The solutions of test and control compounds were then further diluted in 70% MeOH/H2O or 100% MeCN to 500 μM. Next, the human or mouse plasma (994 μL) was aliquoted into 1.5 mL Eppendorf tubes with duplicates (reactions A and B) being prepared for each compound. The plasma was then incubated at 37 °C for 10 min. Afterward, the reaction was initiated by the addition of the test compound (6 μL of 500 μM solution) and further incubated at 37 °C for the designated time course of the study. This procedure provided duplicate experiments with a final volume of 1000 μL (<0.6% organic solvent content) and a final test compound concentration of 3 μM. Aliquots (100 μL) were removed from each reaction mixture at 0, 15, 30, 60, and 120 min time intervals and quenched with 150 μL of cold ISTD solution (2 μM 7-ethoxy-d5-coumarin in MeOH or MeCN). Quenched aliquots were then centrifuged at 15,000 g for 30–45 min, and the resulting supernatants (∼70 μL) were withdrawn and placed in LC-MS vials to be analyzed by LC-MS/MS (Agilent G6460C QQQ MS coupled with an Infinity II 1260 HPLC). Each test compound was run in tandem with positive and negative control experiments for quality assurance. The positive control reaction was conducted at a final volume of 1000 μL for a single run at each time point. Finally, the negative control experiment was conducted with test compounds in DPBS (143 μL) and analyzed at the 120 min time point.
# For both LM and plasma assays, each data point was analyzed in triplicate using between blank washes to avoid carry over and to equilibrate the column for the subsequent runs. Averages of these triplicates for individual compounds at each time point were then normalized to the data at 0 min, representing 100% of the test compound remaining or 0% metabolism. Half-lives (t1/2) were calculated by plotting ln of % test compound remaining versus time and performing linear regression to determine slope. Slope = −k and t1/2 = 0.693/k for first-order kinetics (see Figures S5 and S6 for a representative example).
row,SMILES,half-life at 3 μM
1,O=C(CC(F)(F)C(=O)N1N=C(c2c(-c3ccc(Cl)cc3)c3ccccc3[nH]c2=O)CC1c1ccc(Cl)cc1)OCc1ccccc1 (centres unmarked) [2p],> 2 h
2,CCOC(=O)CC(F)(F)C(=O)N1N=C(c2c(-c3ccc(Cl)cc3)c3ccccc3[nH]c2=O)CC1c1ccc(Cl)cc1 (centres unmarked) [2l],> 2 h
3,CC(C)OC(=O)CC(F)(F)C(=O)N1N=C(c2c(-c3ccc(Cl)cc3)c3ccccc3[nH]c2=O)CC1c1ccc(Cl)cc1 (centres unmarked) [2m],> 2 h
4,NC(=O)CC(F)(F)C(=O)N1N=C(c2c(-c3ccc(Cl)cc3)c3ccccc3[nH]c2=O)CC1c1ccc(Cl)cc1 (centres unmarked) [2k],> 2 h
5,CNC(=O)CC(F)(F)C(=O)N1N=C(c2c(-c3ccc(Cl)cc3)c3ccccc3[nH]c2=O)CC1c1ccc(Cl)cc1 (centres unmarked) [2q],> 2 h
